Results: patent publication US20070060549A1, “COMBINATION THERAPIES EMPLOYING ACE INHIBITORS AND USES THEREOF FOR THE TREATMENT OF DIABETIC DISORDERS” (priority 2004, published 2007)

What was measured:
patients [1] = test: Phase I multi-dose tolerance study of P5P; format: in vivo, human
dogs [2] = test: 13-week oral toxicity in dogs; format: in vivo; settings: 13-week dog study
Description: (§1) As a prelude to human clinical studies, the toxicology of P5P was assessed by conventional means using two animal species, rats and dogs. […] Long term studies, 13-week oral toxicity in dogs, and 26-week oral toxicity in rats, were completed.

dogs [3] = test: Acute toxicity evaluation of P5P in dogs; format: in vivo, dog; settings: doses up to 100 mg/kg
Description: as §1

rat = test: Acute toxicity evaluation of P5P in the rat; format: in vivo; settings: doses up to 5 g/kg
Description: as §1

[4] = Phase I pharmacokinetics of P5P; format: in vivo, human; settings: Phase I dose levels; small numbers of subjects, large inter-subject variability
Description: (§2) In a Phase I single dose tolerance study, conducted in accordance with generally accepted clinical practice standards, groups of six patients were tested at 15 mg/kg, 30 mg/kg, and 60 mg/kg (enteric coated tablets). […] Four subjects in the 60 mg/kg dose group reported a total of 10 adverse events including diarrhea, bradycardia, bubbly stomach, flatulence, and headaches that were mild in severity.

rats [5] = test: 14-day oral administration of P5P to rats; format: in vivo, rat; settings: orally 50 mg/kg for 14 days
Description: as §1

[6] = system: diabetic hypertensive patients; test: Phase II clinical study of P5P: glycated hemoglobin (HbA1c); format: in vivo, human; settings: patients with clinically elevated HbA1c at start; 250, 500, 750 mg P5P two weeks each, then 4-week washout
Description: In a phase II clinical study, conducted in accordance with generally accepted clinical practice standards, diabetic hypertensive patients were treated with P5P. Glucose control was determined by measuring glycated hemoglobin levels (HbA1c). Four weeks prior to treatment, patients ceased all antihypertensive therapy. Following the washout period, baseline HbA1c measurements were taken. Patients were than treated with 250 mg, 500 mg, and 750 mg of P5P for two weeks at each dosage. P5P treatment was then discontinued for 4 weeks. Following the washout period, HbA1c measurements were taken.

patients [7] = test: Phase I single dose tolerance study of P5P; format: in vivo, human
Description: as §2

rats [8] = test: 26-week oral toxicity in rats; format: in vivo; settings: 26-week rat study
Description: as §1

[9] = system: hypertensive patients with type 2 diabetes; settings: 8 weeks
Description: Summary of Study Design—The phase II study was a randomized, parallel group, cross-over, double-blinded to study medication, placebo-controlled comparison of P5P BID at total daily doses of 100, 300 or 1000 mg alone and in combination with 20 mg lisinopril given once daily (QD). In order to protect against antihypertensive and metabolic carry-over effects of lisinopril, 160 patients were randomized in 2 different treatment sequences. Patients randomized in the first treatment sequence received an 8-week treatment with lisinopril 20 mg and P5P (or placebo) and then an 8-week treatment with P5P alone (or placebo). […]
Mean trough sitting and standing BP were measured at each visit. […]
Ambulatory blood pressure (ABP) was measured using a SpaceLabs Medical ABPM Monitor Model 90207 (SpaceLabs Medical Inc., Redmond, Wash.). […] Following the initiation of two manual readings, a third manual reading was initiated and began the 24-hour monitoring period. […] A manual reading was initiated at the end of the 24-hour period to ensure that there was at least one data point in the last hour of the 24-hour period. Subjects were instructed to initiate a manual reading should they be late for their scheduled clinic appointment to ensure that a reading in the last hour of the 24-hour period was not missed. On completion of the readings, the ABPM device was removed from the subject. […]

Compound: Cc1ncc(COP(=O)(O)O)c(C=O)c1O [P5P, pyridoxal-5′-phosphate]
- tolerance (patients [1]; multi-dose 30 mg/kg, one patient withdrew due to vomiting and diarrhea): five of six patients treated with 30 mg/kg P5P tolerated the medication well
- tolerance (patients [1]; multi-dose 60 mg/kg): all 6 treated patients experiencing a variety of mild gastrointestinal symptoms
- drug related toxicities (dogs [2]; 10 and 25 mg/kg): no drug related toxicities were observed
- recovery (dogs [2]; 50-60 mg/kg group, recovery phase): recovered almost completely
- findings in high dose group (dogs [2]; 50-60 mg/kg, all other findings mild to moderate): anorexia and body weight loss
- acute toxicity (dogs [3]): no significant toxicity
- acute toxicity (rat): no significant toxicity
- dose-linearity of pharmacokinetics [4]: did not demonstrate dose-linearity
- signs of toxicity (rats [5]): no signs of toxicity
- reduction in HbA1c levels as compared to baseline [6]: 5.4%
- adverse events (patients [7]; single dose 15 mg/kg, enteric coated tablets, six patients): No adverse events were reported
- adverse events (patients [7]; single dose 30 mg/kg, enteric coated tablets, six patients): One subject in the 30 mg/kg dose group experienced events of dizziness and sleepiness
- subjects reporting adverse events (patients [7]; single dose 60 mg/kg, enteric coated tablets, six patients): Four
- total adverse events (patients [7]; single dose 60 mg/kg, diarrhea, bradycardia, bubbly stomach, flatulence, headaches, mild in severity): 10
- findings of toxicological significance (rats [8]; any dose level (50, 100/175, 175/325 mg/kg)): No findings of toxicological significance
- findings in high dose group (rats [8]; high dose group): reversible reduction in body weight gain and increased incidence of stomach microulcers

Compound: NCCCC[C@H](N[C@@H](CCc1ccccc1)C(=O)O)C(=O)N1CCC[C@H]1C(=O)O [lisinopril]
- reduction in MDASBP from baseline ([9]; lisinopril 20 mg/dose and placebo, p=0.002): 7.5 mmHg
- reduction in MDADBP from baseline ([9]; lisinopril 20 mg/dose plus placebo, p=0.005): 4.1 mmHg
